According to US11214803B2, “Modulators of YAP1 expression” (Ionis Pharmaceuticals, Inc., priority 2019, dated 2022):

Legend:
Yap1 mRNA [1] = assay: Yap1 mRNA levels in SNU449 xenograft tumors (first Example 30); assay type: in vivo, human; conditions: SNU449 xenograft mice, 50 mg/kg, tumors collected day 119 post implantation, relative to PBS
Method: Modified oligonucleotides described in the studies above were tested in a hepatocellular carcinoma SNU449 xenograft tumor model. A control oligonucleotide 792169 was also tested.
Five million SNU449 cells in 30% matrigel were implanted subcutaneously into the fatpads of female NOD.Cg-Prkdcscid II2rgtmlWjl/SzJ mice (from Jackson Laboratory) at 4-6 weeks of age. 43 days post implantation (when tumors had reached approximately 100 mm^3 in size), groups of eight mice each were administered with 50 mg/kg modified oligonucleotide daily for 10 days (loading dose), following which they were administered with 50 mg/kg modified oligonucleotide four times a week for one week, following which they were dosed with 50 mg/kg modified oligonucleotide thrice weekly until the end of the study. Animals were sacrificed and tumors were collected on day 119 post implantation. Yap1 mRNA knockdown in tumors was measured by RT-qPCR as previously described using the Human Yap1 primer-probe set RTS4814. Yap1 mRNA levels were normalized to actin-beta content, as measured by primer probe set RTS5002. Results are presented in the tables below as percent control of the amount of Yap1 mRNA relative to PBS treated animals (% control).

SNU449 cells = assay: Cell proliferation assay in SNU449 cells in combination with sorafenib, CellTiter-Glo (Example 48); assay type: cell-based, human; conditions: 144 hours
Method: (§1) Modified oligonucleotides described in the studies above were tested at various doses in hepatocellular carcinoma cell line SNU449. ION No. 792169, described herein above, was used as a control modified oligonucleotide. ION No. 715487 was used to target Yap1 RNA. […] After approximately 48 hours, Yap1 mRNA levels were measured.
144 hours post treatment, proliferation of SNU449 cells was measured using the luminescent cell viability CellTiter-Glo® 2.0 Assay (Promega). Results are presented in the tables below as percent control of the amount of luminescence in samples treated with modified oligonucleotides relative to untreated control cells (% UTC).

ERK1/2 = assay: Measurement of ERK activation (pERK/ERK) in SNU449 xenograft model with sorafenib (second Example 30); assay type: in vivo, human; conditions: SNU449 xenograft tumors, pERK/ERK relative to PBS control, oligonucleotide 50 mg/kg, sorafenib 30 mg/kg orally
Yap1 mRNA [2] = assay: Yap1 mRNA in SNU449 cells in combination with sorafenib (Example 48); assay type: cell-based, human; conditions: free uptake, approximately 48 hours
Method: as §1
Yap1 mRNA knockdown in tumors was measured by RT-qPCR as previously described using the Human Yap1 primer-probe set RTS4814. Yap1 mRNA levels were normalized to actin-beta content, as measured by primer probe set RTS5002. Results are presented in the tables below as percent control of the amount of Yap1 mRNA relative to PBS treated cells (% control).

[3] = oligonucleotide at 0.04 uM, sorafenib 0 uM
[4] = oligonucleotide at 0.04 uM, sorafenib 0.37 uM
[5] = oligonucleotide at 0.04 uM, sorafenib 3.33 uM
[6] = oligonucleotide at 0.04 uM, sorafenib 10 uM
[7] = oligonucleotide at 0.04 uM, sorafenib […]
[8] = oligonucleotide at 0.2 uM, sorafenib 0 uM
[9] = oligonucleotide at 0.2 uM, sorafenib 0.37 uM
[10] = oligonucleotide at 0.2 uM, sorafenib 3.33 uM
[11] = oligonucleotide at 0.2 uM, sorafenib 10 uM
[12] = oligonucleotide at 0.2 uM, sorafenib […]
[13] = oligonucleotide at 1 uM, sorafenib 0 uM
[14] = oligonucleotide at 1 uM, sorafenib 0.37 uM
[15] = oligonucleotide at 1 uM, sorafenib 3.33 uM
[16] = oligonucleotide at 1 uM, sorafenib 10 uM
[17] = oligonucleotide at 1 uM, sorafenib […]
[18] = oligonucleotide at 5 uM, sorafenib 0 uM
[19] = oligonucleotide at 5 uM, sorafenib 0.37 uM
[20] = oligonucleotide at 5 uM, sorafenib 3.33 uM
[21] = oligonucleotide at 5 uM, sorafenib 10 uM
[22] = oligonucleotide at 5 uM, sorafenib […]

Sequence: CGCCGATAAGGTACAC (cEt gapmer, phosphorothioate backbone, further chemistry not given here) [ION 792169, reference compound]
- Yap1 mRNA levels in tumors (Yap1 mRNA [1]): 90 % control
- Antiproliferative effect (cell proliferation, luminescence) (SNU449 cells; [3]): 99 % UTC
- Antiproliferative effect (cell proliferation, luminescence) (SNU449 cells; [4]): 103 % UTC
- Antiproliferative effect (cell proliferation, luminescence) (SNU449 cells; [5]): 51 % UTC
- Antiproliferative effect (cell proliferation, luminescence) (SNU449 cells; [6]): 3 % UTC
- Antiproliferative effect (cell proliferation, luminescence) (SNU449 cells; [7]): 97 % UTC
- Antiproliferative effect (cell proliferation, luminescence) (SNU449 cells; [8]): 97 % UTC
- Antiproliferative effect (cell proliferation, luminescence) (SNU449 cells; [9]): 100 % UTC
- Antiproliferative effect (cell proliferation, luminescence) (SNU449 cells; [10]): 30 % UTC
- Antiproliferative effect (cell proliferation, luminescence) (SNU449 cells; [11]): 4 % UTC
- Antiproliferative effect (cell proliferation, luminescence) (SNU449 cells; [12]): 91 % UTC
- Antiproliferative effect (cell proliferation, luminescence) (SNU449 cells; [13]): 97 % UTC
- Antiproliferative effect (cell proliferation, luminescence) (SNU449 cells; [14]): 95 % UTC
- Antiproliferative effect (cell proliferation, luminescence) (SNU449 cells; [15]): 27 % UTC
- Antiproliferative effect (cell proliferation, luminescence) (SNU449 cells; [16]): 3 % UTC
- Antiproliferative effect (cell proliferation, luminescence) (SNU449 cells; [17]): 89 % UTC
- Antiproliferative effect (cell proliferation, luminescence) (SNU449 cells; [18]): 86 % UTC
- Antiproliferative effect (cell proliferation, luminescence) (SNU449 cells; [19]): 84 % UTC
- Antiproliferative effect (cell proliferation, luminescence) (SNU449 cells; [20]): 6 % UTC
- Antiproliferative effect (cell proliferation, luminescence) (SNU449 cells; [21]): 1 % UTC
- Antiproliferative effect (cell proliferation, luminescence) (SNU449 cells; [22]): 68 % UTC
- % activation of ERK1/2 (ERK1/2): 100%
- YAP1 mRNA (Yap1 mRNA [2]; [3]): 115 % control
- YAP1 mRNA (Yap1 mRNA [2]; [4]): 97 % control
- YAP1 mRNA (Yap1 mRNA [2]; [5]): 99 % control
- YAP1 mRNA (Yap1 mRNA [2]; [6]): 102 % control
- YAP1 mRNA (Yap1 mRNA [2]; [7]): 100 % control
- YAP1 mRNA (Yap1 mRNA [2]; [8]): 113 % control
- YAP1 mRNA (Yap1 mRNA [2]; [9]): 96 % control
- YAP1 mRNA (Yap1 mRNA [2]; [10]): 91 % control
- YAP1 mRNA (Yap1 mRNA [2]; [11]): 94 % control
- YAP1 mRNA (Yap1 mRNA [2]; [12]): 97 % control
- YAP1 mRNA (Yap1 mRNA [2]; [13]): 103 % control
- YAP1 mRNA (Yap1 mRNA [2]; [14]): 99 % control
- YAP1 mRNA (Yap1 mRNA [2]; [15]): 92 % control
- YAP1 mRNA (Yap1 mRNA [2]; [16]): 93 % control
- YAP1 mRNA (Yap1 mRNA [2]; [17]): 93 % control
- YAP1 mRNA (Yap1 mRNA [2]; [18]): 103 % control
- YAP1 mRNA (Yap1 mRNA [2]; [19]): 104 % control
- YAP1 mRNA (Yap1 mRNA [2]; [20]): 97 % control
- YAP1 mRNA (Yap1 mRNA [2]; [21]): 97 % control
- YAP1 mRNA (Yap1 mRNA [2]; [22]): 95 % control
